No end group written: not given here.
What was measured:
[1] = test system: C57BL/6 mice injected with E. coli LPS; type: in vivo, mouse
Method: The expression levels of IL-1β, IL-6 and TNF-α in the conditional medium, sera and lavage fluids were measured by ELISA as described in detail previously.
(§1) The protein expression levels of iNOS, COX-2, ERK1/2, JNK1/2, p38, IκB-α, PKC, caspase-1 and the phosphorylation levels of ERK1/2, JNK1/2, p38, PKC-α, PKC-δ, IκB-α were determined by Western blotting as described in detail previously.
Experiments were performed on 8-week-old male C57BL/6 mice purchased from the National Laboratory Animal Center (Taipei, Taiwan). The mice were randomized into the following four groups: Group I: control, intraperitoneal injection of 100 μl of sterile PBS, n = 3; Group II: LPS, intraperitoneal injection of 100 μl of sterile PBS containing E. coli LPS (10 mg/kg), n = 5; Group III: GW-A2+LPS, intraperitoneal injection of 100 μl of sterile PBS containing E. coli LPS (10 mg/kg) and GW-A2 (10 mg/kg), n = 5. Group IV: AMP, intraperitoneal injection of 100 μl of sterile PBS containing GW-A2 (10 mg/kg), n = 3. Sera were collected for analysis at 4 h after LPS injection. Peritoneal lavages, lungs and livers were collected for analysis at 24 h after LPS injection.
Lungs, livers and kidney were fixed in 10% formalin and paraffin-embedded, then 4 um thick sections were cut and stained with hematoxylin and eosin was described in detail previously. Scoring of the polymorphonuclear neutrophils (PMN) infiltration was determined by counting in 5 randomly sampled fields by light microscopy at a magnification of x400 evaluated by a pathologist in National Defense Medical Center (Taipei, Taiwan).

[2] = test system: E. coli-LPS-activated RAW 264.7 macrophages; assay: MAPK, PKC-α/δ and IκB-α phosphorylation (Western blot); type: cell-based, mouse; conditions: 2 μM GW-A2 30 min, then E. coli LPS 0.1 μg/ml 0–60 min
Method: as §1
Fig 2 Effects of GW-A2 on LPS-mediated signaling pathways. (A-C) RAW 264.7 macrophages were incubated for 30 min with or without 2 μM of GW-A2, followed by 0–60 min with or without 0.1 μg/ml of E. coli LPS. The phosphorylation levels of (A) ERK1/2, JNK1/2 and p38, (B) PKC-α and PKC-δ, and (C) I-κB-α were assayed by western blotting. (D) RAW-Blue^TM cells were incubated for 30 min with or without GW-A2, followed by 24 h with or without 0.1 μg/ml of E. coli LPS. The activation levels of NF-κB were measured by an NF-κB reporter assay. The data are expressed as the mean ± SD of three independent experiments. The western blotting results shown are a representative experiment of three independent experiments. * and ** indicate significant differences, representing p < 0.05 and p < 0.01, respectively compared to LPS alone.

THP-1 macrophages = type: cell-based, human
Method: RAW 264.7 cells or THP-1 macrophages (5 × 10^3 in 0.1 ml of medium) were seeded in 96-well plates and then incubated with various doses of AMP for 24 h. An AlamarBlue® assay (AbD Serotec, Oxford, UK) was used to determine the cytotoxicity of the test AMP. The procedure was conducted following the protocol described in the manufacturer’s instructions.

[3] = test system: cell surface of paraformaldehyde-fixed RAW 264.7 cells; assay: Flow cytometry, binding to the cell surface; type: cell-based, mouse; conditions: fixed RAW 264.7, GW-A2 30 min then 2 μg/ml LPS-FITC 30 min, 4°C; Fig 6A
Method: For binding of GW-A2 to the cell surface, RAW 264.7 cells were fixed for 15 min with 2% paraformaldehyde and then incubated for 30 min with 20 μM of GW-A2-FITC at 4°C. After washing, cells were subjected to flow cytometric analysis on a FACSCalibur using CellQuest Software (Becton Dickinson Inc., San Jose, CA, USA). To assess binding of LPS to the cell surface, RAW 264.7 cells were fixed for 15 min with 2% paraformaldehyde and then incubated for 30 min with GW-A2. This was followed by incubation for 30 min with 2 μg/ml of LPS-FITC (F3665, Sigma) at 4°C. After washing, the cells were subjected to flow cytometric analysis.

[4] = i.p. E. coli LPS 10 mg/kg with GW-A2 10 mg/kg, n = 5, sera 4 h after LPS, ELISA, Fig 5A

With GAKYAKIIYNYLKKIANALW [GW-A2] the “IL-1β level in the sera” value [1, 4] was “significantly reduced”, the “IL-6 level in the sera” value [1, 4] was “significantly reduced” and the “TNF-α level in the sera” value [1, 4] was “significantly reduced”. For the same sequence, the “Infiltration of PMN into the lung and liver” value ([1]; i.p. LPS 10 mg/kg with GW-A2 10 mg/kg, 24 h, H&E, 5 fields x400, Fig 5D, 5E) was “reduced”, the “Expression levels of iNOS, COX-2 and NLRP3 in the lung and liver” value ([1]; i.p. LPS 10 mg/kg with GW-A2 10 mg/kg, tissues 24 h after LPS, Western blot, Fig 5C) was “reduced” and the “Adverse effects in GW-A2-injected mice” value ([1]; mouse, in vivo, ip, 10 mg/kg) was “no adverse effects were observed”. For the same sequence, the “Behaviors of GW-A2-injected mice versus control mice” value ([1]; mouse, in vivo, ip, 10 mg/kg) was “not significantly different”, the “Phosphorylation levels of ERK1/2, JNK1/2 and p38” value ([2]; Fig 2A) was “reduced” and the “Phosphorylation levels of PKC-α and PKC-δ” value ([2]; Fig 2B) was “reduced”. The “Phosphorylation levels of IκB-α” value ([2]; Fig 2C) was “inhibited”, the “Viability of THP-1 macrophages” value (THP-1 macrophages) was “did not reduce” and the “Competition with LPS-FITC for cell surface binding” value [3] was “did not compete”. For the same sequence, the “LPS-FITC binding to the cell surface in presence of GW-A2” value [3] was “increase in LPS-FITC binding to the cell surface”.

Source: paper PMC5531531, “A synthetic cationic antimicrobial peptide inhibits inflammatory response and the NLRP3 inflammasome by neutralizing LPS and ATP” (PLoS ONE, 2017)
